In US11306078B2, “Piperidine CXCR7 receptor modulators” (IDORSIA PHARMACEUTICALS LTD., priority 2016, dated 2022) one finds IC50 data, which are given here for 33 compounds.

pIC50: −log10 of the molar value.

The target in this assay is human chemokine receptor CXCR7 (Homo sapiens (Human), UniProt P25106). The assay can be described thus: Tango CXCR7-bla U2OS beta-arrestin recruitment assay (beta-lactamase reporter, FRET), antagonism of CXCL12/SDF1-α.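 Further: compounds preincubated 15 min before CXCL12 addition, then 22 h at 37 °C, FRET emission ratio read with CCF4-AM substrate after 2 h.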 It counts as cell-based. The note with it: antagonistic effect on CXCR7; Tango CXCR7-bla U2OS cells, CXCL12/SDF1-α at its EC80.
Chain of human chemokine receptor CXCR7 (P25106 whole entry): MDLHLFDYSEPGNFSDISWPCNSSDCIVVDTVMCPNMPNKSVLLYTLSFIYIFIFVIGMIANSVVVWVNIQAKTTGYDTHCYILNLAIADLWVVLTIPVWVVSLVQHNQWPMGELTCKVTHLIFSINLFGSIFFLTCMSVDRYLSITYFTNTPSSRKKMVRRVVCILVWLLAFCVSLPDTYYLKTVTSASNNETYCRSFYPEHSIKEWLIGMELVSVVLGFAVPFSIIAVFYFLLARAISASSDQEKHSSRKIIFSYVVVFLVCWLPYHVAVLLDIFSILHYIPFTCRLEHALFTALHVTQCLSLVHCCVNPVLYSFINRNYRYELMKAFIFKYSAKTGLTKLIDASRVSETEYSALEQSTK
Regarding `C#CC(C)NC(=O)[C@H]1CN(C2CCCC2)CC[C@@H]1NC(=O)c1cc(-c2ccc(F)cc2F)on1` (stereo partly drawn) [Example 4.039], the pIC50 was 6.41.

In the case of `O=C(N[C@@H]1CCN(C2CCCCC2)C[C@H]1C(=O)NC1(c2ccccn2)CC1)c1cc(-c2c(F)cc(F)cc2F)on1` (racemic) [Example 1.169, rac-(3R*,4R*)-1-Cyclohexyl-4-{[5-(2,4,6-trifluoro-phenyl)-isoxazole-3-carbonyl]-amino}-piperidine-3-carboxylic acid (1-pyridin-2-yl-cyclopropyl)-amide], the pIC50 was 8.30.

For the compound `CN(C)C(=O)[C@@H]1CN(C2CCCCC2)CC[C@H]1NC(=O)c1nnc(-c2ccc(F)cc2F)o1` (single isomer, unassigned) [Example 3.003b, (3R*,4R*)-1-Cyclohexyl-4-{[5-(2,4-difluoro-phenyl)-[1,3,4]oxadiazole-2-carbonyl]-amino}-piperidine-3-carboxylic acid dimethylamide], the pIC50 was 7.27.

`CN(C)C(=O)[C@@H]1CN(Cc2ccccc2F)CC[C@H]1NC(=O)c1cc(-c2ccc(F)cc2F)on1` [Example 2.083] showed a pIC50 of 6.11.

In turn, `CC(CNC(=O)[C@@H]1CN(C2CCCCC2)CC[C@H]1NC(=O)c1cc(-c2ccc(F)cc2F)on1)c1ccccc1` (stereo partly drawn) [Example 1.06] showed a pIC50 of 6.14. This pIC50 and that of the compound before are within 0.2 log units of each other.

Consider `CN(C)C(=O)[C@@H]1CN(C2CCCC2)CC[C@H]1NC(=O)c1ncc(-c2ccc(F)cc2F)o1` (racemic) [Example 3.017, rac-(3R*,4R*)-1-Cyclopentyl-4-{[5-(2,4-difluoro-phenyl)-oxazole-2-carbonyl]-amino}-piperidine-3-carboxylic acid dimethylamide], for which the pIC50 is 6.18.

In turn, `COCC(C)(C)NC(=O)[C@@H]1CN(C2CCCCC2)CC[C@H]1NC(=O)c1noc(-c2ccc(F)cc2F)n1` (racemic) [Example 1.152, rac-(3R*,4R*)-1-Cyclohexyl-4-{[5-(2,4-difluoro-phenyl)-[1,2,4]oxadiazole-3-carbonyl]-amino}-piperidine-3-carboxylic acid (2-methoxy-1,1-dimethyl-ethyl)-amide] showed a pIC50 of 6.24.

`CC(NC(=O)[C@H]1CN(CC2CC2)CC[C@@H]1NC(=O)c1cc(-c2ccc(F)cc2F)on1)c1ccn[nH]1` (stereo partly drawn) [Example 4.023] gave a pIC50 of 7.16.

`CC(C)(NC(=O)[C@H]1CN(CC2CC2)CC[C@@H]1NC(=O)c1cc(-c2ccc(F)cc2F)on1)c1ccccn1` [Example 4.033] showed a pIC50 of 9.52. Compared with the last compound, the pIC50 is 2.36 log units higher.

Take `CN(C)C(=O)[C@@H]1CN(C2CCC(F)CC2)CC[C@H]1NC(=O)c1cc(-c2ccc(F)cc2F)on1` (stereo partly drawn) [Example 2.026]: the pIC50 was 6.60.

For the compound `C[C@@H]1CCC[C@H]1N1CC[C@@H](NC(=O)c2cc(-c3ccc(F)cc3F)no2)[C@H](C(=O)NC2(c3ccccn3)CC2)C1` (relative stereo) [Example 1.175, (3R*,4R*)-4-{[3-(2,4-Difluoro-phenyl)-isoxazole-5-carbonyl]-amino}-1-((1RS,2RS)-2-Methyl-cyclopentyl)-piperidine-3-carboxylic acid (1-pyridin-2-yl-cyclopropyl)-amide], the negative-log IC50 (pIC50) was 6.17.

Take `C[C@@H]1CCC[C@H]1N1CC[C@@H](NC(=O)c2cc(-c3ccc(F)cc3F)on2)[C@H](C(=O)N(C)C)C1` [Example 2.023b]: the pIC50 was 7.59.

In turn, `CC(C)(C#N)NC(=O)[C@@H]1CN(C2CCCCC2)CC[C@H]1NC(=O)c1cc(-c2ccc(F)cc2F)on1` (racemic) [Example 1.183, rac-(3R*,4R*)-1-Cyclohexyl-4-{[5-(2,4-difluoro-phenyl)-isoxazole-3-carbonyl]-amino}-piperidine-3-carboxylic acid (cyano-dimethyl-methyl)-amide] gave a pIC50 of 7.10. Against the preceding compound, the pIC50 is 0.49 log units lower.

`CN(C)C(=O)[C@@H]1CN(Cc2ccn(C)c2)CC[C@H]1NC(=O)c1cc(-c2ccc(F)cc2F)on1` [Example 2.085] had a pIC50 of 6.75.

`CN(C)C(=O)[C@@H]1CN([C@@H]2C[C@@H]3CC[C@@H]2C3)CC[C@H]1NC(=O)c1cc(-c2ccc(F)cc2F)on1` [Example 2.037] gave a pIC50 of 6.79.

Compound `CN(C)C(=O)[C@@H]1CN(C2CCCCC2)CC[C@H]1NC(=O)c1cc(-c2ccc(F)cc2F)no1` (racemic) [Example 1.102, rac-(3R*,4R*)-1-Cyclohexyl-4-{[3-(2,4-difluoro-phenyl)-isoxazole-5-carbonyl]-amino}-piperidine-3-carboxylic acid dimethylamide] gave a pIC50 of 6.95.

The compound `Cc1cccc(CCNC(=O)[C@@H]2CN(C3CCCCC3)CC[C@H]2NC(=O)c2cc(-c3ccc(F)cc3F)on2)c1` (racemic) [Example 1.066, rac-(3R*,4R*)-1-Cyclohexyl-4-{[5-(2,4-difluoro-phenyl)-isoxazole-3-carbonyl]-amino}-piperidine-3-carboxylic acid (2-m-tolyl-ethyl)-amide] showed a pIC50 of 7.80.

The compound `O=C(N[C@@H]1CCN(CC2CC2)C[C@H]1C(=O)NC1(c2ncccn2)CC1)c1cc(-c2c(F)cc(F)cc2F)on1` (racemic) [Example 1.177, rac-(3R*,4R*)-1-Cyclopropylmethyl-4-{[5-(2,4,6-trifluoro-phenyl)-isoxazole-3-carbonyl]-amino}-piperidine-3-carboxylic acid (1-pyrimidin-2-yl-cyclopropyl)-amide] gave a pIC50 of 8.30. This pIC50 lies 0.50 log units higher than the previous one.

`CON(C)C(=O)[C@@H]1CN(CC2CC2)CC[C@H]1NC(=O)c1cc(-c2ccc(F)cc2F)on1` [Example 4.069] showed a pIC50 of 6.82.

In turn, `O=C(N[C@@H]1CCN(CC2CC2)C[C@H]1C(=O)NC1(c2ccccn2)CC1)c1cc(-c2c(F)cc(F)cc2F)on1` (single isomer, unassigned) [Example 1.171b, (3R*,4R*)-1-Cyclopropylmethyl-4-{[5-(2,4,6-trifluoro-phenyl)-isoxazole-3-carbonyl]-amino}-piperidine-3-carboxylic acid (1-pyridin-2-yl-cyclopropyl)-amide] showed a pIC50 of 6.35. This pIC50 is 0.47 log units lower than that of the compound before.

As to `O=C(N[C@H]1CCN(C2CCCCC2)C[C@@H]1C(=O)NC(CO)c1ccccn1)c1cc(-c2ccc(F)cc2F)on1` (stereo partly drawn) [Example 4.013], the pIC50 was 6.84.

Compound `Cc1nnc(C(C)NC(=O)[C@@H]2CN(C3CCCCC3)CC[C@H]2NC(=O)c2cc(-c3ccc(F)cc3F)on2)o1` (relative stereo) [Example 1.085, (3R*,4R*)-1-Cyclohexyl-4-{[5-(2,4-difluoro-phenyl)-isoxazole-3-carbonyl]-amino}-piperidine-3-carboxylic acid [(1RS)-1-(5-methyl-[1,3,4]oxadiazol-2-yl)-ethyl]-amide] had a pIC50 of 6.57. This pIC50 is 0.27 log units lower than that of the compound before.

For `O=C(N[C@H]1CCN(C2CC3CC3C2)C[C@@H]1C(=O)NC1(c2ncccn2)CC1)c1cc(-c2ccc(F)cc2F)on1` (stereo partly drawn) [Example 2.094], the pIC50 was 8.70.

Regarding `CC(NC(=O)[C@H]1CN(CC2CC2)CC[C@@H]1NC(=O)c1cc(-c2ccc(F)cc2F)on1)C1CCCO1` (stereo partly drawn) [Example 4.046], the pIC50 is 6.54.

Compound “(3R*,4R*)-1-Cyclohexyl-4-{[3-(2,4-difluoro-phenyl)-isoxazole-5-carbonyl]-amino}-piperidine-3-carboxylic acid ((1S*,2R)-2-phenyl-cyclopropyl)-amide and (3R*,4R*)-1-Cyclohexyl-4-{[3-(2,4-difluoro-phenyl)-isoxazole-5-carbonyl]-amino}-piperidine-3-carboxylic acid ((1R*,2S*)-2-phenyl-cyclopropyl)-amide [Example 1.147]” showed a pIC50 of 6.35.

For `CC(NC(=O)[C@@H]1CN(C2CCCCC2)CC[C@H]1NC(=O)c1cc(-c2ccc(F)cc2F)on1)C1CCC1` (relative stereo) [Example 1.078, (3R*,4R*)-1-Cyclohexyl-4-{[5-(2,4-difluoro-phenyl)-isoxazole-3-carbonyl]-amino}-piperidine-3-carboxylic acid ((1RS)-1-cyclobutyl-ethyl)-amide], the negative logarithm of the IC50 (pIC50) was 6.71. Compared with the last compound, the pIC50 is 0.36 log units higher.

In turn, `CN(CCc1ccccc1)C(=O)[C@@H]1CN([C@@H]2CCCC[C@H]2O)CC[C@H]1NC(=O)c1cc(-c2ccc(F)cc2F)on1` [Example 2.05] gave a pIC50 of 7.82.

Compound `C[C@@H](NC(=O)[C@@H]1CN(C2CCCC2)CC[C@H]1NC(=O)c1cc(-c2c(F)cc(F)cc2F)on1)c1ccccn1` (single isomer, unassigned) [Example 1.122b, (3R*,4R*)-1-Cyclopentyl-4-{[5-(2,4,6-trifluoro-phenyl)-isoxazole-3-carbonyl]-amino}-piperidine-3-carboxylic acid ((R)-1-pyridin-2-yl-ethyl)-amide] had a pIC50 of 7.77.

`O=C(N[C@H]1CCN(CC2CC2)C[C@@H]1C(=O)NC1(c2cnccn2)CC1)c1cc(-c2ccc(F)cc2F)on1` [Example 1.179, (3S,4S)-1-Cyclopropylmethyl-4-{[5-(2,4-difluoro-phenyl)-isoxazole-3-carbonyl]-amino}-piperidine-3-carboxylic acid (1-pyrazin-2-yl-cyclopropyl)-amide] showed a pIC50 of 7.30.

Consider `O=C(N[C@H]1CCN(CC2CC2)C[C@@H]1C(=O)N(CCF)Cc1ccccc1)c1cc(-c2ccc(F)cc2F)on1` [Example 4.058], for which the pIC50 is 7.05. Compared with the last compound, the pIC50 is 0.25 log units lower.

As to `C[C@@H](NC(=O)[C@H]1CN(C2CCCC2)CC[C@@H]1NC(=O)c1cn(-c2ccc(F)cc2F)nn1)c1ccccn1` (single isomer, unassigned) [Example 1.118a, (3S,4S)-1-Cyclopentyl-4-{[1-(2,4-difluoro-phenyl)-1H-[1,2,3]triazole-4-carbonyl]-amino}-piperidine-3-carboxylic acid ((R)-1-pyridin-2-yl-ethyl)-amide or (3R,4R)-1-Cyclopentyl-4-{[1-(2,4-difluoro-phenyl)-1H-[1,2,3]triazole-4-carbonyl]-amino}-piperidine-3-carboxylic acid ((R)-1-pyridin-2-yl-ethyl)-amide], the pIC50 was 7.12. The pIC50 values of the last two compounds are within 0.2 log units of each other.

As to `O=C(N[C@@H]1CCN([C@@H]2CCCC[C@H]2F)C[C@H]1C(=O)O)c1cc(-c2ccc(F)cc2F)on1` [Example 2.04], the pIC50 is 6.32.

For `CC(C)(C)N1CC[C@H](NC(=O)c2cc(-c3ccc(F)cc3F)on2)[C@@H](C(=O)NC2(c3ncccn3)CC2)C1` [Example 4.101b], the pIC50 is 6.15.
